Read-outs that look alike come from different tables or passages of the source.
Columns and labels:
[1] = target: T1, α7 nAChR (Homo sapiens, UniProt P36544); experiment: Inhibition of α7 ACh-evoked responses; format: cell-based
T1 construct: expressed in transfected cells; host or cells: Xenopus laevis oocytes (injected RNA)
Method: Figure 4 Effects sulfonium compounds on α7 ACh-evoked net-charge responses. (A) Effects of the sulfonium compounds at 100 µM co-applied with 60 µM relative to responses to 60 µM ACh applied alone. Data are the averages (±SEM) from seven or eight cells under each condition. (B) Effects of select sulfonium compounds at 1 mM co-applied with 60 µM relative to responses to 60 µM ACh applied alone. Data are the averages (±SEM) from seven or eight cells under each condition. Statistical significance was determined by pairwise t-test with p values corrected for multiple comparisons; * p < 0.05, ** p < 0.001.
The sulfonium compounds that were active with TQS but produced little inhibition of ACh response at a concentration of 100 µM were tested as inhibitors of ACh response at a concentration of 1 mM (Figure 4B).
We tested S8 across a range of concentrations for its ability to inhibit 60 µM ACh responses (Figure 5A). Note that we use 60 µM as an ACh control because this concentration gives nearly maximal (93%) net-charge responses, with the time course of the responses roughly following the speed of solution exchange. […] We tested whether inhibition of α7 responses by S8 was surmountable by increasing ACh concentration, consistent with a competitive mechanism of inhibition. However, since α7 responses to concentrations of ACh greater than 60 µM occur more rapidly than solution exchange in the chamber, we first pre-applied 5 µM S8 prior to the co-application of 5 µM S8 with either 60 µM or 1 mM ACh (Figure 5B). The 60 µM net-charge responses were reduced to 28 ± 2% of controls (n = 8) and 60 µM peak currents to 21 ± 3 % controls. The 1 mM net-charge responses were reduced to 56 ± 6 % of those obtained without S8 co-application, although the S8 co-application increased the peak-current amplitudes compared to 60 µM controls from 1.78 ± 0.15 to 3.72 ± 0.81 (n = 8).
Figure 5 Inhibition of α7 ACh-evoked responses by S8. (A) Concentration-response studies of α7 net-charge responses to 60 µM ACh co-applied with increasing concentrations of S8. To confirm the stability of the ACh responses, applications of ACh plus S8 were alternated with applications of ACh alone. Data are the averages of eight cells (±SEM). See text for curve-fit values. (B) Effects of 5 µM S8 on responses to either 60 µM or 1 mM ACh. The traces shown across the top are the averaged raw data from seven cells, each normalized to the peak current of the first ACh control response shown. In order to assure that the S8 was present at 5 µM throughout the ACh-evoked responses, a 30 s pre-application was made of 5 µM S8 alone. The lower traces show averaged responses to 60 µM or 1 mM ACh alone or with the 5 µM S8 pre- and co-application. The details of the data are described in Methods.
(§1) Experiments were conducted using OpusXpress 6000A (Molecular Devices, Union City, CA, USA). Both the voltage and current electrodes were filled with 3 M KCl. Oocytes were voltage-clamped at −60 mV at room temperature (24 °C). The oocytes were bath-perfused with Ringer’s solution (115 mM NaCl, 2.5 mM KCl, 1.8 mM CaCl2, 10 mM HEPES, and 1 μM atropine, pH 7.2) at 2 mL/min for α7 receptors, or 4 mL/min for heteromeric nAChR. To evaluate the effects of experimental compounds, responses were compared to control ACh-evoked responses, defined as the average of two initial applications of ACh made before test applications. ACh control concentrations were 60 µM for α7 receptors; 100 µM for α4(3)β2(2) and α3β4 receptors; 30 µM for α4β2α6β2β3 and muscle-type (αβ1εδ) receptors; and 10 µM for α4(3)β2(2) and α4(2)β2(2)α5 receptors.
Solutions were applied from 96-well plates via disposable tips. Drug applications were 12 s in duration, followed by 181 s washout periods for α7 receptors, or 6 s in duration followed by 301 s washout periods for heteromeric nAChR. […]

[2] = target: T1, α7 nAChR; experiment: α7 concentration-response on co-application with 10 µM PNU-120596; format: cell-based; details: peak currents, co-applied with 10 µM PNU-120596, Hill fit; for IMax (PNU Activation): approximation only
Method: (§2) Compounds were co-applied at a concentration of 100 µM with 30 µM racemic TQS (Figure 3A). All compounds except S4, S5, and S8 gave large responses when co-applied with TQS, consistent with silent agonism of α7 (see Table S1 for ANOVA). Active compounds were also evaluated across a range of concentrations with the alternative PAM, PNU-120596 (Figure 3B). The curve-fit values for Imax (Table 1) should be taken only as approximation of the relative efficacies of the compounds, due to the large variability frequently observed in PNU-120596-potentiated responses, as evidenced by the large SEMs of the responses obtained with high concentrations.
(§3) Figure 3 Responses of α7 nAChR to sulfonium compounds coapplied with PAMs. (A) Potentiation of α7 responses with 30 µM racemic TQS. Shown are the average net-charge responses of seven or eight oocytes ± SEM. (B) Concentration-response studies of peak currents generated by compounds that gave positive responses with TQS, coapplied with 10 µM PNU-120596. Each point represents the average (±SEM) of at least four oocytes.
as §1
(§4) Solutions were applied from 96-well plates via disposable tips. Drug applications were 12 s in duration, followed by 181 s washout periods for α7 receptors, or 6 s in duration followed by 301 s washout periods for heteromeric nAChR. The responses were calculated as both peak current amplitudes and net charge, as previously described. Data were collected at 50 Hz, filtered at 20 Hz for α7 receptors or filtered at 5 Hz for heteromeric nAChR, and analyzed by Clampfit (Molecular Devices, San Jose, CA, USA) and Excel (Microsoft, Redmond, WA, USA). Data were expressed as means ± SEM from at least four oocytes for each experiment and plotted with Kaleidagraph 4.5.2 (Abelbeck Software, Reading, PA, USA). Multi-cell averages were calculated for comparisons of complex responses. Averages of the normalized data were calculated for each of the 10,322 points in each of the 206.44 s traces (acquired at 50 Hz), as well as the standard errors for those averages.

[3] = target: T2, α3β4 nAChR (Homo sapiens, UniProt P30926+P32297); experiment: Inhibition of α3β4 100 µM ACh-evoked peak currents; format: cell-based; details: co-application with 100 µM ACh, peak currents
T2 construct: expressed in transfected cells; host or cells: Xenopus laevis oocytes (injected RNA)
T2 sequence (P32297 32-505): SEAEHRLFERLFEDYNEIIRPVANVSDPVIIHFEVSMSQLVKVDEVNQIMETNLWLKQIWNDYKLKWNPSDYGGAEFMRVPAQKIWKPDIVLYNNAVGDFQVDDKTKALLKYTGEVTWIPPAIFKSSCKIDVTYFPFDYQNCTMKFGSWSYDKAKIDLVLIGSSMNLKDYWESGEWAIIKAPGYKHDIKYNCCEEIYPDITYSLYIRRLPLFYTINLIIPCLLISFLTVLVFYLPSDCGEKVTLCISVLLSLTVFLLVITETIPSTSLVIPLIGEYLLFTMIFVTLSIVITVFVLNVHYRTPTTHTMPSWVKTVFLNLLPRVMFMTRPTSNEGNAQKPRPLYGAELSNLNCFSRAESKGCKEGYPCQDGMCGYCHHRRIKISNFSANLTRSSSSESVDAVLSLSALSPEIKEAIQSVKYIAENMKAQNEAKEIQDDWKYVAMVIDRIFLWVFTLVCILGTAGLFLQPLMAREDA
T2 sequence (P30926 22-498): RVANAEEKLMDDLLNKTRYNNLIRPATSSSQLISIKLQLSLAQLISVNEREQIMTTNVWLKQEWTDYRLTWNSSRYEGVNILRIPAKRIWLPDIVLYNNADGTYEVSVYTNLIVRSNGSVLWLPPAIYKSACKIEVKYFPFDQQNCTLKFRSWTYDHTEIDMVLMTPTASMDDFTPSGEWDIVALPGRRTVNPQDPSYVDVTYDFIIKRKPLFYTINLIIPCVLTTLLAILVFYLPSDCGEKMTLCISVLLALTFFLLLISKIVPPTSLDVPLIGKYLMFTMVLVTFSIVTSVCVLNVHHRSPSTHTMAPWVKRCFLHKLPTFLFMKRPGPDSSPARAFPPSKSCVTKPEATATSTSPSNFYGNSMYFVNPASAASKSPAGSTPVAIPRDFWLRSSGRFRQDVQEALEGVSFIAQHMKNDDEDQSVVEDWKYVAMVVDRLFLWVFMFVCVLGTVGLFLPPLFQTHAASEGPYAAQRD
Method: Although none of the other sulfonium compounds activated neuronal heteromeric receptors, several of them produced inhibition of ACh-evoked responses. Shown in Figure 7A are concentration-response studies for the compounds that were active antagonists of α3β4 nAChR (Table 3). Some compounds were also tested as antagonists of α4β2 subtypes formed with concatamers (Figure 7B).
Figure 7 Inhibition of heteromeric nAChR by sulfonium compounds. (A) Inhibition of α3β4 100 µM ACh-evoked peak currents by the co-application of the sulfonium compounds. Data are the averaged of six to eight oocytes (±SEM). To confirm the stability of the ACh responses, applications of ACh plus the sulfonium compounds were alternated with applications of ACh alone. (B) Inhibition of ACh control peak-current responses of α4-containing nAChR formed with concatamers by 100 µM of the sulfonium compounds indicated. Data are the average of six to eight oocytes (±SEM).
as §1, §4

[4] = target: T1, α7 nAChR; experiment: α7 responses on co-application with the type II PAM TQS (silent agonism); format: cell-based; details: for α7 functional classification (silent agonist / inactive): inactive alone, active with a PAM = silent agonist
Method: as §2, §3
The human nAChR clones were obtained from Jon Lindstrom (University of Pennsylvania, Philadelphia, PA, USA). Mouse muscle subunit clones were obtained from Jim Boulter (Salk Institute, La Jolla, CA, USA) and Paul Gardner (Dartmouth, Hanover, NH, USA). The human resistance-to-cholinesterase 3 (RIC3) clone was obtained from Millet Treinin (Hebrew University, Jerusalem, Israel) and co-injected with α7 to improve the level and speed of α7 receptor expression without affecting the pharmacological properties of the receptors. Subsequent to linearization and purification of the plasmid DNAs, RNAs were prepared using the mMessage mMachine in vitro RNA transcription kit (Ambion, Austin, TX, USA).
as §1, §4

[5] = system: α7; details: alone and co-applied with an α7 PAM; cited from earlier work
[6] = pKa by titration; format: physicochemical
Text: One of the questions that emerges from the data is why aromatic sulfoniums as structurally similar as S5, S9, and S10 provide different responses when coapplied with TQS. Indeed, compounds S5 and S9 virtually overlap in their best docked poses (Supplementary Figure S1), but the α7 response of S9 and TQS was dramatically greater than that of S5 and TQS (p < 0.001, Table S1). The formation of cation–pi interactions is a key feature of the binding of nicotinic orthosteric ligands, and the electronic distribution of the cation can be compared qualitatively in a series of compounds using molecular electrostatic potentials (MEPs). Analysis of the MEPs shown in Figure 9 reveal that the substituents on the benzene ring can modulate the intensity of the positive charge on the sulfonium center. Compound S5, for instance, has two hydroxyl groups which are strongly electron donating, and in comparison to compound S9, which has only one hydroxyl group, the intensity of the positive charge is […]. Another factor may be that a lone pair on the ortho hydroxyl substituent is donating electron density through space to the neighboring sulfonium, redistributing its positive charge. Compound S10 also has an ortho hydroxyl group, but unlike compound S5, compound S10 also has a nitro group, which is a strong electron-withdrawing group that may offset the electron-donating impact of the ortho hydroxyl group. Inspection of the MEP surface shown in Figure 9 does indicate that, relative to S5, the S10 sulfonium bears greater positive electrostatic potential. Given that compounds such as para-nitrophenol are acidic, with a pKa of ~7 for the phenolic hydroxyl, we also considered whether the deprotonated forms of S5, S9, and S10 might be accessible at the pH of our experiments.
Thus, all three compounds have varying proportions of the phenolic OH in the phenoxide form at the pH of Ringers solution used in the experiments. […] Future work on analogs of these compounds may be focused on substituents that are non-ionizable, and thus preserve a positive molecular charge derived from the sulfonium center.

T1 sequence (P36544 23-502): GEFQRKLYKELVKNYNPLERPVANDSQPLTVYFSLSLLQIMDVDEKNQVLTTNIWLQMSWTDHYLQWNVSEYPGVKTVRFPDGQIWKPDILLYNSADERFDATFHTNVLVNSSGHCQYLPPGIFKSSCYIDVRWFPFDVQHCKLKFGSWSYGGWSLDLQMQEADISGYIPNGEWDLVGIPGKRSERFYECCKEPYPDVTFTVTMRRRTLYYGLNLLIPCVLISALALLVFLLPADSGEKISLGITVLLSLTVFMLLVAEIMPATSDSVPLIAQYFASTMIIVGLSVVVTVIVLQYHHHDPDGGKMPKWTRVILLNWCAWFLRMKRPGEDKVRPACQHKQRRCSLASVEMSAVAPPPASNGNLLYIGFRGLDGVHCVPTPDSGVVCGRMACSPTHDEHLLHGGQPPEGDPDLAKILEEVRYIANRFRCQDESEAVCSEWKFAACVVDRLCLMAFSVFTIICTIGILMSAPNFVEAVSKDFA

## CC[S+](CC)CC [Compound S11, triethylsulfonium iodide]
[1]; compound 1 mM co-applied with 60 µM ACh
  effect on 60 µM ACh response at 1 mM: not statistically significant
[2]
  IMax (PNU Activation): >1.8
[3]
  IC50: 108 ± 20 µM
[4]
  α7 functional classification (silent agonist / inactive): silent agonist

## CC[S+]1CCN(c2ccccc2)CC1.O=S(=O)([O-])C(F)(F)F [1-ethyl-4-phenylthiomorpholin-1-ium trifluoromethanesulfonate]
[5]
  behaviour at α7: inactive when applied alone but active when co-applied with an α7 PAM

## C[S+](C)c1ccc(O)cc1O [Compound S5, (2,4-dihydroxyphenyl)dimethylsulfonium trifluoromethanesulfonate]
[1]; compound co-applied at 100 µM, net charge
  inhibition of responses to 60 µM ACh: failed to produce inhibition
[6]; phenolic hydroxyl, data not shown for S9, S10, read-out: pKa
  pKa: ~6.3
[6]; read-out: pKa for the second hydroxyl
  pKa: 9.2
[4]; 100 µM compound with 30 µM racemic TQS, net charge
  response when co-applied with TQS: did not generate responses
[4]
  α7 functional classification (silent agonist / inactive): simply inactive

## COc1ccc([N+](=O)[O-])cc1C[S+](C)C.[Br-] [Compound S3, (2-methoxy-5-nitrobenzyl)dimethylsulfonium bromide]
[1]; read-out: inhibition of responses to 60 µM ACh
  inhibition at 100 µM: ~50%
[2]
  IMax (PNU Activation): 22 ± 2.5
[2]; read-out: EC50 (PNU Activation)
  EC50: 263 ± 23 µM
[3]
  IC50: 18 ± 2.6 µM
[4]
  α7 functional classification (silent agonist / inactive): silent agonist activity

Source: paper PMC8464850, “Sulfonium Ligands of the α7 nAChR” (Molecules, 2021)
